Active and inactive are the calls of the source. How the calls were made is not given here.
The compounds below were run on S. cerevisiae GAL1 promoter reporter activation counterscreen (assay: GAL1 promoter activators in yeast, artefact control for yeast lifespan extension project, S. cerevisiae (AID 816);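 further: yeast growth read after 24 h of incubation with compounds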).

Row | SMILES | EC50
1 | CCC(=NCCc1c(C)[nH]c2ccc(C)cc12)C1=C(O)CC(c2ccccc2)CC1=O (configuration not stated) | > 40 µM (inactive)
2 | C=C(C(=O)c1ccccc1)C(CC(=O)c1ccccc1)c1ccccc1 (configuration not stated) | > 40 µM (inactive)
3 | CC(=C1C(=O)c2ccccc2C1=O)N1CCN(C/C=C/c2ccccc2)CC1 | > 40 µM (inactive)
4 | O=c1[nH]c2ccccc2nc1C(Cl)c1ccccc1 (configuration not stated) | > 40 µM (inactive)
5 | CC1=C(C#N)C2C(/C1=N/O)C2(C)C (configuration not stated) | > 40 µM (inactive)
6 | COc1ccc(OC)c(C2C(C(C)=O)=C(O)C(=O)N2Cc2cccnc2)c1 (configuration not stated) | > 40 µM (inactive)
7 | CS(=O)(=O)Oc1ccc(Br)cc1/C=C1/N=C(c2ccco2)OC1=O | > 40 µM (inactive)
8 | O=c1c2ccccc2sn1-c1ccccc1 | > 40 µM (inactive)
9 | Cc1cc(N=Cc2c(O)ccc3ccccc23)no1 | > 40 µM (inactive)
10 | COc1ccc(C(=O)On2c(-c3ccc(Br)cc3)nc3ccccc3c2=O)cc1 | > 40 µM (inactive)
11 | O=C(CCl)N1c2ccccc2OCC1c1ccccc1 (configuration not stated) | > 40 µM (inactive)
12 | CC(C)OCCCNS(=O)(=O)c1ccc2ccccc2c1 | > 40 µM (inactive)
13 | CCOC(=O)c1cnc(-c2ccccc2)nc1Oc1ccc(Cl)cc1 | > 40 µM (inactive)
14 | CCCCC(c1nnnn1CC1CCCO1)N1CCN(c2nc3ccccc3s2)CC1 (configuration not stated) | > 40 µM (inactive)
15 | O=C(Nc1cccnc1)c1c(O)c2cccc3c2n(c1=O)CC3 | > 40 µM (inactive)
16 | C=CCN(CC=C)c1nc2ccccc2nc1C(C#N)C(=O)OC(C)C (configuration not stated) | > 40 µM (inactive)
17 | Cc1nc2c(=O)n(C)c(=O)n(C)c2nc1Cl | > 40 µM (inactive)
18 | O=C(NCCc1ccccn1)C(F)(F)C(F)(F)C(F)(F)C(F)(F)C(F)(F)C(F)(F)C(F)(F)C(F)F | > 40 µM (inactive)
19 | CCCCOC(=O)n1c(=O)oc2cc(S(=O)(=O)N3CCCCC3)ccc21 | > 40 µM (inactive)
20 | COCCCNc1c2c3c(cccc3[nH]c1=O)C(=O)c1ccccc1-2 | > 40 µM (inactive)
21 | Cc1ccccc1OC(=O)n1c(=S)oc2cc(Cl)ccc21 | > 40 µM (inactive)
22 | C=C(C(=O)c1ccccc1)C(C)CC(=O)c1ccccc1 (configuration not stated) | > 40 µM (inactive)
23 | Cc1cc(C)c(S(=O)(=O)c2ccccc2)c(OC(=O)c2cc(F)c(F)cc2Cl)n1 | > 40 µM (inactive)
24 | CC(C)=C1C(=O)NN(c2ccc(C)c(Cl)c2)C1=O | > 40 µM (inactive)

Row | SMILES | EC50
25 | CCCn1c(C)cc(C(=O)COc2ncnc3sccc23)c1C | > 40 µM (inactive)
26 | O=C(c1ccc(F)cc1)C(CN1CCOCC1)c1ccccc1 (configuration not stated) | > 40 µM (inactive)
27 | COc1ccc(CNC(=O)C2CCN(c3nc(OC)nc(OC)n3)CC2)cc1 | > 40 µM (inactive)
28 | O=C(CCC1CCCC1)c1c(O)c2ccccc2oc1=O | > 40 µM (inactive)
29 | CCOC(=O)C1Cc2cc3c(cc2C1=O)CC(C(=O)OCC)C3=O (configuration not stated) | > 40 µM (inactive)
30 | COc1ccc(/C=N/NC(=O)c2csc(-n3nc(C)cc3C(F)(F)F)n2)cc1 | > 40 µM (inactive)
31 | COc1cc(/C=C/C(=O)c2c(O)cc(C)oc2=O)cc(OC)c1O | > 40 µM (inactive)
32 | CCc1ccc(C(=O)CN2C(=O)NC(C)(CCc3ccccc3)C2=O)cc1 (configuration not stated) | > 40 µM (inactive)
33 | C/C(=N\NC(=O)c1ccccc1O)c1c(O)cc(C)oc1=O | > 40 µM (inactive)
34 | COc1ccccc1N(CN1CCCC1=O)C(=O)c1c(F)cccc1F | > 40 µM (inactive)
35 | COc1ccc(C(C)NC(=O)c2ccccc2)cc1 (configuration not stated) | > 40 µM (inactive)
36 | COc1ccc(C(=O)C(CN2CCOCC2)c2ccccc2)cc1F (configuration not stated) | > 40 µM (inactive)
37 | CCOC(=O)CN1C(=O)N[C@H](c2ccc(Br)cc2)C(C(C)=O)=C1C | > 40 µM (inactive)
38 | CN1C(=O)C(C(=O)Nc2ccccc2F)c2ccccc21 (configuration not stated) | > 40 µM (inactive)
39 | O=C(Cn1nc(Cl)nc1Cl)c1cc2ccccc2oc1=O | > 40 µM (inactive)
40 | CCOC(=O)C(=Cc1ccc(F)cc1)C(=O)OCC | > 40 µM (inactive)
41 | COc1ccc(/C=C(\C#N)C(=O)N2CCOCC2)cc1Br | > 40 µM (inactive)
42 | CCCCCCCCn1c(=O)c(C(=O)OCC)c(O)c2ccccc21 | > 40 µM (inactive)
43 | CCn1c(=O)c2ccccc2n2c(SCC(=O)N3CCCc4ccccc43)nnc12 | > 40 µM (inactive)
44 | COCCOC(=O)/C(=C/c1ccc(OC(=O)c2ccccc2)cc1)C(C)=O | > 40 µM (inactive)
45 | O=C(/C(=C/c1ccccc1)n1cncn1)c1ccc(Cl)cc1Cl | > 40 µM (inactive)
46 | O=C(N/N=C/c1cccc(F)c1)c1c(O)c2ccccc2[nH]c1=O | > 40 µM (inactive)
47 | COc1ccc(-c2cc(C(F)(F)F)nc(S(C)(=O)=O)n2)cc1OC | > 40 µM (inactive)
48 | CN1C(=O)C(Cl)(Cl)C(=O)c2ccccc21 | > 40 µM (inactive)

Row | SMILES | EC50
49 | ClC(Cl)(c1nnnn1-c1ccccc1)c1nnnn1-c1ccccc1 | > 40 µM (inactive)
50 | CC1(C)CC2c3cccc(C(=O)O)c3C(=O)N2c2c1ccc1ccccc21 (configuration not stated) | > 40 µM (inactive)
51 | COc1ccc(-c2noc(CSc3nnc(-c4ccncc4)n3-c3ccc(F)cc3)n2)cc1OC | > 40 µM (inactive)
52 | COc1ccc(N(C)C(=S)Nc2ccc3nc(C)c(C)nc3c2)cc1 | > 40 µM (inactive)
53 | COc1ccc(/C(O)=C/C(=O)C(=O)Nc2c(C)n(C)n(-c3ccccc3)c2=O)cc1 | > 40 µM (inactive)
54 | CCOC(=O)C1C(c2cccs2)NC(=O)N(C)C1(O)C(F)(F)F (configuration not stated) | > 40 µM (inactive)
55 | Cc1[nH]n(-c2ccccc2)c(=O)c1N=Nc1nccs1 | > 40 µM (inactive)
56 | CCOC(=O)COc1ccccc1/C=C\[N+](=O)[O-] | > 40 µM (inactive)
57 | Cc1cc(C(=O)CN2C(=O)NC(C)(CC(C)C)C2=O)c(C)n1-c1ccc2c(c1)OCO2 (configuration not stated) | > 40 µM (inactive)
58 | CC(C)C(OC(=O)CN1C(=O)COc2ccccc21)C(=O)NC1CCCC1 (configuration not stated) | > 40 µM (inactive)
59 | CCOC(=O)CSC1=NC(=O)/C(=C/c2ccc(OC)cc2)S1 | > 40 µM (inactive)
60 | CCSc1nnc(NC(=O)C2(C)Cc3ccccc3C(=O)O2)s1 (configuration not stated) | > 40 µM (inactive)
61 | COc1cc(/C=C/C(=O)C2C(=O)C=C(C)OC2=O)cc(OC)c1O (configuration not stated) | > 40 µM (inactive)
62 | COc1ccc(N(C(=O)C(C)C)S(=O)(=O)c2ccc(Cl)cc2)cc1 | > 40 µM (inactive)
63 | O=C(NCc1cccnc1)c1ccc(S(=O)(=O)N2CCCCC2)cc1 | > 40 µM (inactive)
64 | CCCC(=Nc1ccc(N)cc1)C1=C(O)C(C(=O)OC)C(C)(C)CC1=O (configuration not stated) | > 40 µM (inactive)
65 | CC(=O)Nc1c(O)nc(SCc2ccccc2C#N)[nH]c1=O | > 40 µM (inactive)
66 | C[C@]12CC[C@@H]3c4ccc(O)cc4CC[C@H]3[C@@H]1CC[C@@H]2OC(=O)CCC(=O)O | > 40 µM (inactive)
67 | N#Cc1ccc(-c2ccc(OCC(=O)NCCc3ccccc3)cc2)cc1 | > 40 µM (inactive)
68 | CCCNC(=O)CCC(NS(=O)(=O)c1ccc(C)cc1)C(=O)NCCC (configuration not stated) | > 40 µM (inactive)
69 | Cc1[nH]nc2nc3c(c(OC(=O)c4ccccc4)c12)c(=O)n(C)c(=O)n3C | > 40 µM (inactive)
70 | O=S1(=O)C=C(Sc2nnc(-c3ccccc3)o2)c2ccccc21 | > 40 µM (inactive)
71 | COc1cccc(/C=C/C(=O)c2c(O)cc(C)oc2=O)c1O | > 40 µM (inactive)
72 | O=Cc1cc2ccccc2nc1SCc1ccc(Cl)cc1 | > 40 µM (inactive)
